# Measurements from ChEMBL document CHEMBL3734705, “Synthesis and in vitro cytotoxicity of novel C-12 substituted-14-deoxy-andrographolide derivatives as potent anti-cancer agents” (2015).
# Key:
# Assay type in all cases: functional
# [1] = Cytotoxicity against human OVCAR5 cells assessed as growth inhibition at 10 uM after 48 hrs by SRB assay; settings: OVCAR-5, 48 h, read-out: GI
# MCF7 = assay: Cytotoxicity against human MCF7 cells after 48 hrs by SRB assay; settings: MCF7, 48 h
# [2] = Cytotoxicity against human HL-60(TB) cells after 48 hrs by SRB assay; settings: HL-60, 48 h; for CC50: read-out: LC50 (the source's name)
# [3] = Cytotoxicity against human SNB75 cells after 48 hrs by SRB assay; settings: SNB-75, 48 h; for CC50: read-out: LC50 (the source's name)
# SK-MEL-5 = assay: Cytotoxicity against human SK-MEL-5 cells after 48 hrs by SRB assay; settings: SK-MEL-5, 48 h
# [4] = Cytotoxicity against human HCT116 cells after 48 hrs by SRB assay; settings: HCT-116, 48 h
# SK-MEL-2 = assay: Cytotoxicity against human SK-MEL-2 cells assessed as growth level at 10 uM after 48 hrs by SRB assay
# A498 = assay: Cytotoxicity against human A498 cells after 48 hrs by SRB assay; settings: A498, 48 h; for CC50: read-out: LC50 (the source's name)
# [5] = Cytotoxicity against human OVCAR4 cells after 48 hrs by SRB assay; settings: OVCAR-4, 48 h; for CC50: read-out: LC50 (the source's name)
# [6] = Cytotoxicity against human Caki1 cells after 48 hrs by SRB assay; settings: CAKI-1, 48 h
# [7] = Cytotoxicity against human PC3 cells after 48 hrs by SRB assay; settings: PC-3, 48 h
# [8] = Cytotoxicity against human OVCAR8 cells after 48 hrs by SRB assay; settings: OVCAR-8, 48 h
# MDA-MB-435 = assay: Cytotoxicity against human MDA-MB-435 cells after 48 hrs by SRB assay; settings: MDA-MB-435, 48 h
# [9] = Cytotoxicity against human NCI-ADR-RES cells after 48 hrs by SRB assay
# K562 = assay: Cytotoxicity against human K562 cells after 48 hrs by SRB assay; settings: K562, 48 h
# [10] = Cytotoxicity against human RXF393 cells after 48 hrs by SRB assay; settings: RXF 393, 48 h
# [11] = Cytotoxicity against human SW620 cells after 48 hrs by SRB assay; settings: SW-620, 48 h
# [12] = Cytotoxicity against human SNB19 cells after 48 hrs by SRB assay; settings: SNB-19, 48 h
# NCI-H23 = assay: Cytotoxicity against human NCI-H23 cells after 48 hrs by SRB assay; settings: NCI-H23, 48 h
# [13] = Cytotoxicity against human UO31 cells after 48 hrs by SRB assay; settings: UO-31, 48 h
# [14] = Cytotoxicity against human HOP62 cells after 48 hrs by SRB assay; settings: HOP-62, 48 h
# [15] = Cytotoxicity against human HCC2998 cells after 48 hrs by SRB assay; settings: HCC 2998, 48 h
# M14 = assay: Cytotoxicity against human M14 cells after 48 hrs by SRB assay; settings: M14, 48 h
# HT-29 = assay: Cytotoxicity against human HT-29 cells after 48 hrs by SRB assay; settings: HT-29, 48 h
# [16] = Cytotoxicity against human HCT15 cells after 48 hrs by SRB assay; settings: HCT-15, 48 h
# [17] = Cytotoxicity against human RPMI8226 cells after 48 hrs by SRB assay; settings: RPMI-8226, 48 h
# MDA-MB-231 = assay: Cytotoxicity against human MDA-MB-231 cells after 48 hrs by SRB assay; settings: MDA-MB-231, 48 h
# [18] = Cytotoxicity against human IGROV1 cells after 48 hrs by SRB assay; settings: IGROV-1, 48 h
# 786-0 = assay: Cytotoxicity against human 786-0 cells after 48 hrs by SRB assay; settings: 786-0, 48 h
# T47D = assay: Cytotoxicity against human T47D cells after 48 hrs by SRB assay
# A549 = assay: Cytotoxicity against human A549 cells after 48 hrs by SRB assay; settings: A549, 48 h
# NCI-H322M = assay: Cytotoxicity against human NCI-H322M cells after 48 hrs by SRB assay
# NCI-H460 = assay: Cytotoxicity against human NCI-H460 cells after 48 hrs by SRB assay; settings: NCI-H460, 48 h; for CC50: read-out: LC50 (the source's name)
# [19] = Cytotoxicity against human OVCAR5 cells after 48 hrs by SRB assay; settings: OVCAR-5, 48 h
# [20] = Cytotoxicity against human COLO205 cells after 48 hrs by SRB assay; settings: COLO 205, 48 h
smiles,measurement,setting,value
C=C1CC[C@@H]2[C@](C)(COC(C)=O)[C@H](OC(C)=O)CC[C@@]2(C)[C@@H]1CC(NCCCC)C1=CCOC1=O (mixture of isomers),inhibition of growth at 10 µM,[1],4.96%
C=C1CC[C@@H]2[C@](C)(COC(C)=O)[C@H](OC(C)=O)CC[C@@]2(C)[C@@H]1CC(NCCCCCCCC)C1=CCOC1=O (mixture of isomers),inhibition of growth at 10 µM,[1],6.77%
C=C1CC[C@@H]2[C@](C)(COC(C)=O)[C@H](OC(C)=O)CC[C@@]2(C)[C@@H]1CC(Nc1ccc(S(=O)(=O)NC(C)=O)cc1)C1=CCOC1=O (mixture of isomers),GI50,MCF7,1.92 µM
same,LC50 (50% lethal concentration),MCF7,> 75 µM
same,TGI,MCF7,11.3 µM
same,GI50,[2],2.45 µM
same,TGI,[2],12 µM
same,CC50,[2],> 75 µM
same,GI50,[3],3.08 µM
same,TGI,[3],12.7 µM
same,CC50,[3],30.9 µM
same,GI50,SK-MEL-5,3.22 µM
same,LC50 (concentration killing 50% of cells),SK-MEL-5,30.7 µM
same,TGI,SK-MEL-5,11.5 µM
same,GI50,[4],1.67 µM
same,LC50 (concentration killing 50% of cells),[4],12.3 µM
same,TGI,[4],3.66 µM
same,Activity,SK-MEL-2,-7.41%
same,GI50,A498,10.3 µM
same,TGI,A498,20.1 µM
same,CC50,A498,39.3 µM
same,GI50,[5],4.14 µM
same,TGI,[5],13.7 µM
same,CC50,[5],33.7 µM
same,GI50,[6],3.31 µM
same,LC50,[6],29 µM
same,TGI,[6],11.2 µM
same,GI50,[7],6.56 µM
same,LC50,[7],40 µM
same,TGI,[7],16.8 µM
same,GI50,[8],2.25 µM
same,LC50,[8],38.6 µM
same,TGI,[8],8.42 µM
same,GI50,MDA-MB-435,2.79 µM
same,LC50 (50% lethal concentration),MDA-MB-435,30.6 µM
same,TGI,MDA-MB-435,10.6 µM
same,GI50,[9],2.51 µM
same,LC50,[9],> 75 µM
same,TGI,[9],9.14 µM
same,GI50,K562,2.58 µM
same,LC50 (50% lethal concentration),K562,> 75 µM
same,TGI,K562,17.6 µM
same,GI50,[10],1.96 µM
same,LC50 (concentration causing 50% net cell kill),[10],18.8 µM
same,TGI,[10],4.69 µM
same,GI50,[11],1.61 µM
same,LC50,[11],9.63 µM
same,TGI,[11],3.58 µM
same,GI50,[12],8.19 µM
same,LC50 (concentration killing 50% of cells),[12],43.7 µM
same,TGI,[12],18.9 µM
same,GI50,NCI-H23,5.52 µM
same,LC50,NCI-H23,46.4 µM
same,TGI,NCI-H23,17.4 µM
same,GI50,[13],3.71 µM
same,LC50 (concentration killing 50% of cells),[13],31.7 µM
same,TGI,[13],13.2 µM
same,GI50,[14],10.8 µM
same,LC50,[14],41.1 µM
same,TGI,[14],21.1 µM
same,GI50,[15],7.51 µM
same,LC50,[15],40.1 µM
same,TGI,[15],17.3 µM
same,GI50,M14,2.86 µM
same,LC50,M14,45.8 µM
same,TGI,M14,11.9 µM
same,GI50,HT-29,1.57 µM
same,LC50,HT-29,17.9 µM
same,TGI,HT-29,3.55 µM
same,GI50,[16],1.53 µM
same,LC50,[16],38 µM
same,TGI,[16],4.36 µM
same,GI50,[17],1.84 µM
same,LC50,[17],> 75 µM
same,TGI,[17],6.53 µM
same,GI50,MDA-MB-231,3.32 µM
same,LC50,MDA-MB-231,35.1 µM
same,TGI,MDA-MB-231,11.6 µM
same,GI50,[18],5.31 µM
same,TGI,[18],15.4 µM
same,CC50,[18]; read-out: LC50 (the source's name),37.1 µM
same,GI50,786-0,2.44 µM
same,LC50,786-0,26.2 µM
same,TGI,786-0,7.98 µM
same,GI50,T47D,2.46 µM
same,LC50 (concentration killing 50% of cells),T47D,> 75 µM
same,TGI,T47D,12 µM
same,GI50,A549,8.41 µM
same,LC50,A549,40 µM
same,TGI,A549,18.3 µM
same,GI50,NCI-H322M,10.3 µM
same,LC50,NCI-H322M,40.1 µM
same,TGI,NCI-H322M,20.3 µM
same,GI50,NCI-H460,6.72 µM
same,TGI,NCI-H460,17.9 µM
same,CC50,NCI-H460,44.7 µM
same,GI50,[19],4.82 µM
same,LC50 (concentration causing 50% net cell kill),[19],39.5 µM
same,TGI,[19],15.4 µM
same,GI50,[20],1.81 µM
same,LC50,[20],20 µM
same,TGI,[20],4.82 µM
C=C1CC[C@@H]2[C@](C)(COC(C)=O)[C@H](OC(C)=O)CC[C@@]2(C)[C@@H]1CC(Sc1ccccc1)C1=CCOC1=O (mixture of isomers),GI50,MCF7,0.53 µM
same,LC50 (50% lethal concentration),MCF7,7.27 µM
same,TGI,MCF7,2.35 µM
same,GI50,[2],0.49 µM
same,TGI,[2],2.27 µM
same,CC50,[2],9.76 µM
same,GI50,[3],1.3 µM
same,TGI,[3],2.9 µM
same,CC50,[3],6.47 µM
same,GI50,SK-MEL-5,1.42 µM
same,LC50 (concentration killing 50% of cells),SK-MEL-5,5.6 µM
same,TGI,SK-MEL-5,2.82 µM
same,GI50,[4],0.85 µM
same,LC50 (concentration killing 50% of cells),[4],5.03 µM
same,TGI,[4],2.18 µM
same,Activity,SK-MEL-2,-1.66%
same,GI50,A498,2.3 µM
same,TGI,A498,14 µM
same,CC50,A498,59.2 µM
same,GI50,[5],1.36 µM
same,TGI,[5],3.11 µM
same,CC50,[5],7.12 µM
same,GI50,[6],2.77 µM
same,LC50,[6],> 100 µM
same,TGI,[6],11.5 µM
same,GI50,[7],1.84 µM
same,LC50,[7],> 100 µM
same,TGI,[7],10.1 µM
same,GI50,[8],1.46 µM
same,LC50,[8],70 µM
same,TGI,[8],4.7 µM
same,GI50,MDA-MB-435,1.41 µM
same,LC50 (50% lethal concentration),MDA-MB-435,9.09 µM
same,TGI,MDA-MB-435,3.58 µM
same,GI50,[9],2.1 µM
same,LC50,[9],> 100 µM
same,TGI,[9],11 µM
same,GI50,K562,0.69 µM
same,LC50 (50% lethal concentration),K562,45.7 µM
same,TGI,K562,3.69 µM
same,GI50,[10],1.62 µM
same,LC50 (concentration causing 50% net cell kill),[10],6.01 µM
same,TGI,[10],3.12 µM
same,GI50,[11],0.71 µM
same,LC50,[11],> 100 µM
same,TGI,[11],3.64 µM
same,GI50,[12],1.78 µM
same,LC50 (concentration killing 50% of cells),[12],7.97 µM
same,TGI,[12],3.77 µM
same,GI50,NCI-H23,1.78 µM
same,LC50,NCI-H23,7.57 µM
same,TGI,NCI-H23,3.67 µM
same,GI50,[13],1.2 µM
same,LC50 (concentration killing 50% of cells),[13],5.33 µM
same,TGI,[13],2.53 µM
same,GI50,[14],2.89 µM
same,LC50,[14],14.7 µM
same,TGI,[14],5.53 µM
same,GI50,[15],2.1 µM
same,LC50,[15],7.89 µM
same,TGI,[15],4.08 µM
same,GI50,M14,1.47 µM
same,LC50,M14,9.23 µM
same,TGI,M14,3.69 µM
same,GI50,HT-29,1.77 µM
same,LC50,HT-29,8.03 µM
same,TGI,HT-29,3.77 µM
same,GI50,[16],0.87 µM
same,LC50,[16],6.98 µM
same,TGI,[16],2.59 µM
same,GI50,[17],0.34 µM
same,LC50,[17],> 100 µM
same,TGI,[17],2.73 µM
same,GI50,MDA-MB-231,2.47 µM
same,LC50,MDA-MB-231,> 100 µM
same,TGI,MDA-MB-231,6.29 µM
same,GI50,[18],1.87 µM
same,TGI,[18],4.28 µM
same,GI50,786-0,1.9 µM
same,LC50,786-0,6.96 µM
same,TGI,786-0,3.64 µM
same,GI50,T47D,2.01 µM
same,LC50 (concentration killing 50% of cells),T47D,> 100 µM
same,TGI,T47D,8.32 µM
same,GI50,A549,2.73 µM
same,LC50,A549,> 100 µM
same,TGI,A549,7.77 µM
same,GI50,NCI-H322M,2.93 µM
same,LC50,NCI-H322M,> 100 µM
same,TGI,NCI-H322M,10.4 µM
same,GI50,NCI-H460,2.24 µM
same,TGI,NCI-H460,6.03 µM
same,CC50,NCI-H460,> 100 µM
same,GI50,[19],2.46 µM
same,LC50 (concentration causing 50% net cell kill),[19],8.89 µM
same,TGI,[19],4.67 µM
same,GI50,[20],1.49 µM
same,LC50,[20],> 100 µM
same,TGI,[20],3.98 µM
